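Where inhibition never reached the appropriate level, the endpoint shown equals the highest concentration tested. Otherwise, values were interpolated linearly from a five-concentration, 48-hour dose response in 96-well plates. GI50 is the concentration that inhibits growth by half.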 Active and inactive are the calls of the source. Rule as the data show it: active = GI50 up to about 1.1 µM and inactive = higher.
Assays:
Experiment in all cases: NCI anticancer screen, dose series, 48 h
HCT-116 = tested on: HCT-116
M19-MEL = tested on: M19-MEL
OVCAR-3 = tested on: OVCAR-3
HOP-92 = tested on: HOP-92
DMS-114 = tested on: DMS-114
A498 = tested on: A498
HCT-15 = tested on: HCT-15
HOP-62 = tested on: HOP-62
U-251 = tested on: U-251
TK-10 = tested on: TK-10
UACC-62 = tested on: UACC-62
SF-268 = tested on: SF-268
ACHN = tested on: ACHN
NCI-H23 = tested on: NCI-H23
NCI-H522 = tested on: NCI-H522
KM-20L2 = tested on: KM-20L2
OVCAR-8 = tested on: OVCAR-8
UO-31 = tested on: UO-31
K562 = tested on: K562
HT-29 = tested on: HT-29
M14 = tested on: M14
CCRF-CEM = tested on: CCRF-CEM
SR = tested on: SR
Malme-3M = tested on: Malme-3M
CAKI-1 = tested on: CAKI-1
SK-OV-3 = tested on: SK-OV-3
SNB-78 = tested on: SNB-78
LXFL 529 = tested on: LXFL 529
SNB-19 = tested on: SNB-19
KM12 = tested on: KM12
EKVX = tested on: EKVX
RXF 631 = tested on: RXF 631
SK-MEL-2 = tested on: SK-MEL-2
SF-539 = tested on: SF-539
A549 = tested on: A549
IGROV-1 = tested on: IGROV-1
786-0 = tested on: 786-0
NCI-H226 = tested on: NCI-H226
SN12C = tested on: SN12C
SNB-75 = tested on: SNB-75
XF498 = tested on: XF498
SK-MEL-28 = tested on: SK-MEL-28
DLD-1 = tested on: DLD-1
OVCAR-5 = tested on: OVCAR-5
SW-620 = tested on: SW-620
COLO 205 = tested on: COLO 205
RPMI-8226 = tested on: RPMI-8226
NCI-H460 = tested on: NCI-H460
MOLT-4 = tested on: MOLT-4
SK-MEL-5 = tested on: SK-MEL-5
HOP-18 = tested on: HOP-18
RXF 393 = tested on: RXF 393
HCC 2998 = tested on: HCC 2998
HL-60 = tested on: HL-60
SF-295 = tested on: SF-295
DMS-273 = tested on: DMS-273
LOX IMVI = tested on: LOX IMVI
OVCAR-4 = tested on: OVCAR-4
UACC-257 = tested on: UACC-257

In the case of `CCCCN(CCCC)c1c([N+](=O)[O-])c(=O)nc2ccccn12`, the GI50 (HCT-116) is reported as 38.9 µM (inactive), the GI50 (M19-MEL) is reported as 8.67 µM (inactive) and the GI50 (OVCAR-3) is reported as 45.8 µM (inactive). The GI50 (HOP-92) was 61.5 µM (inactive), the GI50 (DMS-114) was 21.7 µM (inactive) and the GI50 (A498) was 22.3 µM (inactive). The GI50 (HCT-15) was 39.4 µM, the GI50 (HOP-62) was 32.6 µM (inactive) and the GI50 (U-251) was 38.8 µM (inactive). For the same molecule, the GI50 (TK-10) was 46.9 µM (inactive), the GI50 (UACC-62) was 36.7 µM (inactive) and the GI50 (SF-268) was 29.3 µM (inactive). For the same molecule, the GI50 (ACHN) was 35.2 µM (inactive), the GI50 (NCI-H23) was 30.8 µM (inactive) and the GI50 (NCI-H522) was 17.6 µM (inactive). For the same molecule, the GI50 (KM-20L2) was 27.4 µM (inactive), the GI50 (OVCAR-8) was 27.5 µM (inactive) and the GI50 (UO-31) was 45.6 µM (inactive). For the same molecule, the GI50 (K562) was 37.2 µM (inactive), the GI50 (HT-29) was 38.1 µM (inactive) and the GI50 (M14) was 27.9 µM (inactive). The GI50 (CCRF-CEM) was 44.6 µM (inactive), the GI50 (SR) was 38.5 µM (inactive) and the GI50 (Malme-3M) was > 100 µM (inactive). The GI50 (CAKI-1) was > 10 µM (inactive), the GI50 (SK-OV-3) was > 100 µM (inactive) and the GI50 (SNB-78) was 48.2 µM (inactive). The GI50 (LXFL 529) was 33 µM (inactive), the GI50 (SNB-19) was 72.9 µM (inactive) and the GI50 (KM12) was 31.3 µM (inactive). The GI50 (EKVX) was 32.8 µM (inactive), the GI50 (RXF 631) was 23.4 µM (inactive) and the GI50 (SK-MEL-2) was 31 µM (inactive). For the same molecule, the GI50 (SF-539) was 31.4 µM (inactive), the GI50 (A549) was 33.7 µM (inactive) and the GI50 (IGROV-1) was > 100 µM (inactive). For the same molecule, the GI50 (786-0) was 34 µM (inactive), the GI50 (NCI-H226) was 75.3 µM (inactive) and the GI50 (SN12C) was 34.1 µM (inactive). The GI50 (SNB-75) was 30.8 µM (inactive), the GI50 (XF498) was 32.2 µM (inactive) and the GI50 (SK-MEL-28) was 13.7 µM (inactive). For the same molecule, the GI50 (DLD-1) was 35.4 µM (inactive), the GI50 (OVCAR-5) was 99.3 µM (inactive) and the GI50 (SW-620) was 36.2 µM (inactive). For the same molecule, the GI50 (COLO 205) was 45.5 µM (inactive), the GI50 (RPMI-8226) was 33.4 µM (inactive) and the GI50 (NCI-H460) was 24.8 µM (inactive). For the same molecule, the GI50 (MOLT-4) was 37.7 µM (inactive) and the GI50 (SK-MEL-5) was 33.5 µM (inactive).

For `Cc1ccc(C)c(NC(=O)CCc2n[nH]c(=S)o2)c1`, the GI50 (HCT-116) was > 100 µM (inactive), the GI50 (M19-MEL) was > 100 µM (inactive) and the GI50 (OVCAR-3) was > 100 µM (inactive). For the same molecule, the GI50 (HOP-92) was > 100 µM (inactive), the GI50 (DMS-114) was > 100 µM (inactive) and the GI50 (HOP-18) was > 100 µM (inactive). The GI50 (RXF 393) was > 100 µM (inactive), the GI50 (A498) was > 100 µM (inactive) and the GI50 (HCC 2998) was > 100 µM (inactive). The GI50 (HCT-15) was greater than 100 µM, the GI50 (HOP-62) was > 100 µM (inactive) and the GI50 (U-251) was > 100 µM (inactive). For the same molecule, the GI50 (TK-10) was > 100 µM (inactive), the GI50 (UACC-62) was > 100 µM (inactive) and the GI50 (SF-268) was > 100 µM (inactive). For the same molecule, the GI50 (ACHN) was > 100 µM (inactive), the GI50 (NCI-H23) was > 100 µM (inactive) and the GI50 (NCI-H522) was > 100 µM (inactive). For the same molecule, the GI50 (KM-20L2) was > 100 µM (inactive), the GI50 (OVCAR-8) was > 100 µM (inactive) and the GI50 (UO-31) was > 100 µM (inactive). The GI50 (K562) was > 100 µM (inactive), the GI50 (HT-29) was > 100 µM (inactive) and the GI50 (M14) was > 100 µM (inactive). For the same molecule, the GI50 (HL-60) was > 100 µM (inactive), the GI50 (CCRF-CEM) was > 100 µM (inactive) and the GI50 (SR) was > 100 µM (inactive). The GI50 (Malme-3M) was > 100 µM (inactive), the GI50 (CAKI-1) was > 100 µM (inactive) and the GI50 (SF-295) was > 100 µM (inactive). The GI50 (SNB-78) was > 100 µM (inactive), the GI50 (LXFL 529) was > 100 µM (inactive) and the GI50 (SNB-19) was > 100 µM (inactive). The GI50 (KM12) was > 100 µM (inactive), the GI50 (EKVX) was > 100 µM (inactive) and the GI50 (RXF 631) was > 100 µM (inactive). The GI50 (SF-539) was > 100 µM (inactive), the GI50 (A549) was > 100 µM (inactive) and the GI50 (IGROV-1) was > 100 µM (inactive). For the same molecule, the GI50 (786-0) was > 100 µM (inactive), the GI50 (NCI-H226) was > 100 µM (inactive) and the GI50 (SN12C) was > 100 µM (inactive). For the same molecule, the GI50 (SNB-75) was > 100 µM (inactive), the GI50 (XF498) was > 100 µM (inactive) and the GI50 (DMS-273) was > 100 µM (inactive). The GI50 (SK-MEL-28) was > 100 µM (inactive), the GI50 (LOX IMVI) was > 100 µM (inactive) and the GI50 (DLD-1) was > 100 µM (inactive). The GI50 (OVCAR-5) was > 100 µM (inactive), the GI50 (SW-620) was > 100 µM (inactive) and the GI50 (COLO 205) was > 100 µM (inactive). For the same molecule, the GI50 (OVCAR-4) was > 100 µM (inactive), the GI50 (UACC-257) was > 100 µM (inactive) and the GI50 (NCI-H460) was > 100 µM (inactive). The GI50 (MOLT-4) was > 100 µM (inactive) and the GI50 (SK-MEL-5) was > 100 µM (inactive).

From ChEMBL document CHEMBL1201862, “PubChem BioAssay data set” (2004)
